Reference: ChEMBL document CHEMBL1201862, “PubChem BioAssay data set” (2004)
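Assay format: 96-well plates, 48-hour exposure. Here, GI50 denotes the concentration required for 50% inhibition of growth.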 The source made the active and inactive calls. Rule as the data show it: active = GI50 up to about 1.1 µM and inactive = higher.

Columns and labels:
Assay in all cases: NCI-60 cell line screen, 48 h
[1] = tested on: NCI-H23
[2] = tested on: CAKI-1
[3] = tested on: SNB-19
[4] = tested on: Malme-3M
[5] = tested on: IGROV-1
[6] = tested on: TK-10
[7] = tested on: SNB-75
[8] = tested on: U-251
[9] = tested on: A498
[10] = tested on: MCF7
[11] = tested on: SF-539
[12] = tested on: A549
[13] = tested on: Hs-578T
[14] = tested on: SN12C
[15] = tested on: HCT-15
[16] = tested on: NCI-H460
[17] = tested on: UO-31
[18] = tested on: MDA-N
[19] = tested on: NCI/ADR-RES
[20] = tested on: OVCAR-4
[21] = tested on: EKVX
[22] = tested on: M14
[23] = tested on: MOLT-4
[24] = tested on: OVCAR-3
[25] = tested on: LOX IMVI
[26] = tested on: T47D
[27] = tested on: HT-29
[28] = tested on: MDA-MB-231
[29] = tested on: COLO 205
[30] = tested on: SK-MEL-5
[31] = tested on: HL-60
[32] = tested on: SR
[33] = tested on: OVCAR-8
[34] = tested on: SK-OV-3
[35] = tested on: RXF 393
[36] = tested on: UACC-257
[37] = tested on: PC-3
[38] = tested on: HOP-62
[39] = tested on: SK-MEL-28
[40] = tested on: CCRF-CEM
[41] = tested on: BT-549
[42] = tested on: SW-620
[43] = tested on: OVCAR-5
[44] = tested on: K562
[45] = tested on: 786-0
[46] = tested on: RPMI-8226
[47] = tested on: KM12
[48] = tested on: HCC 2998
[49] = tested on: DU-145
[50] = tested on: SF-268
[51] = tested on: UACC-62
[52] = tested on: ACHN
[53] = tested on: HCT-116
[54] = tested on: SF-295
[55] = tested on: NCI-H226
[56] = tested on: SK-MEL-2
[57] = tested on: MDA-MB-435

CCN(CC)C(=C(C(Cl)=C(Cl)Cl)[N+](=O)[O-])N(CC)CC
GI50 [1]: 24.1 µM (inactive)
GI50 [2]: 34.8 µM (inactive)
GI50 [3]: 29.6 µM (inactive)
GI50 [4]: 19.6 µM (inactive)
GI50 [5]: 47.1 µM (inactive)
GI50 [6]: > 100 µM (inactive)
GI50 [7]: 22.3 µM (inactive)
GI50 [8]: > 100 µM (inactive)
GI50 [9]: > 100 µM (inactive)
GI50 [10]: > 100 µM (inactive)
GI50 [11]: > 100 µM (inactive)
GI50 [12]: > 100 µM (inactive)
GI50 [13]: 24.7 µM (inactive)
GI50 [14]: 93.5 µM (inactive)
GI50 [15]: 62.2 µM
GI50 [16]: 55 µM (inactive)
GI50 [17]: 30.2 µM (inactive)
GI50 [18]: 47.1 µM (inactive)
GI50 [19]: 54 µM (inactive)
GI50 [20]: > 100 µM (inactive)
GI50 [21]: > 100 µM (inactive)
GI50 [22]: 92 µM (inactive)
GI50 [23]: 27.2 µM (inactive)
GI50 [24]: 37.5 µM (inactive)
GI50 [25]: 41 µM (inactive)
GI50 [26]: 61.8 µM (inactive)
GI50 [27]: > 100 µM (inactive)
GI50 [28]: > 100 µM (inactive)
GI50 [29]: > 100 µM (inactive)
GI50 [30]: > 100 µM (inactive)
GI50 [31]: 29.6 µM (inactive)
GI50 [32]: 33.7 µM (inactive)
GI50 [33]: > 100 µM (inactive)
GI50 [34]: > 100 µM (inactive)
GI50 [35]: 17.3 µM (inactive)
GI50 [36]: 54.6 µM (inactive)
GI50 [37]: > 100 µM (inactive)
GI50 [38]: > 100 µM (inactive)
GI50 [39]: 49.1 µM (inactive)
GI50 [40]: 30.6 µM (inactive)
GI50 [41]: 83 µM (inactive)
GI50 [42]: 85.9 µM (inactive)
GI50 [43]: > 100 µM (inactive)
GI50 [44]: 46.5 µM (inactive)
GI50 [45]: > 100 µM (inactive)
GI50 [46]: 42.3 µM (inactive)
GI50 [47]: > 100 µM (inactive)
GI50 [48]: > 100 µM (inactive)
GI50 [49]: 62.4 µM (inactive)
GI50 [50]: 41 µM (inactive)
GI50 [51]: 49.4 µM (inactive)
GI50 [52]: 72.6 µM (inactive)
GI50 [53]: 87.7 µM (inactive)
GI50 [54]: > 100 µM (inactive)
GI50 [55]: > 100 µM (inactive)

COc1ccc(/C=N/NC(=O)c2cnc3[nH]c(=O)n(C)c(=O)c3c2)cc1
GI50 [1]: > 100 µM (inactive)
GI50 [2]: 94.8 µM (inactive)
GI50 [3]: 34.1 µM (inactive)
GI50 [4]: > 100 µM (inactive)
GI50 [5]: 34.9 µM (inactive)
GI50 [6]: 46.5 µM (inactive)
GI50 [56]: 44.3 µM (inactive)
GI50 [7]: 13.1 µM (inactive)
GI50 [8]: 36.7 µM (inactive)
GI50 [10]: > 100 µM (inactive)
GI50 [57]: > 100 µM (inactive)
GI50 [12]: > 100 µM (inactive)
GI50 [13]: 39.9 µM (inactive)
GI50 [14]: 88.3 µM (inactive)
GI50 [15]: > 100 µM
GI50 [16]: > 100 µM (inactive)
GI50 [17]: > 100 µM (inactive)
GI50 [18]: > 100 µM (inactive)
GI50 [19]: 97.3 µM (inactive)
GI50 [20]: > 100 µM (inactive)
GI50 [21]: > 100 µM (inactive)
GI50 [22]: > 100 µM (inactive)
GI50 [23]: > 100 µM (inactive)
GI50 [24]: > 100 µM (inactive)
GI50 [26]: > 100 µM (inactive)
GI50 [27]: > 100 µM (inactive)
GI50 [28]: 27 µM (inactive)
GI50 [29]: > 100 µM (inactive)
GI50 [30]: > 100 µM (inactive)
GI50 [33]: 40.6 µM (inactive)
GI50 [34]: 59.2 µM (inactive)
GI50 [35]: 38.3 µM (inactive)
GI50 [36]: > 100 µM (inactive)
GI50 [37]: > 100 µM (inactive)
GI50 [38]: 44.3 µM (inactive)
GI50 [39]: > 100 µM (inactive)
GI50 [40]: > 100 µM (inactive)
GI50 [41]: > 100 µM (inactive)
GI50 [42]: > 100 µM (inactive)
GI50 [43]: > 100 µM (inactive)
GI50 [44]: > 100 µM (inactive)
GI50 [45]: 34.4 µM (inactive)
GI50 [46]: > 100 µM (inactive)
GI50 [47]: > 100 µM (inactive)
GI50 [48]: > 100 µM (inactive)
GI50 [49]: > 100 µM (inactive)
GI50 [50]: 45.2 µM (inactive)
GI50 [51]: 80.2 µM (inactive)
GI50 [52]: 44 µM (inactive)
GI50 [53]: 57.5 µM (inactive)
GI50 [54]: 46.3 µM (inactive)
GI50 [55]: 64.1 µM (inactive)
